Reference: patent publication US20080194609A1, “Chemical Compound and Its Use” (Bayer HeathCare AG, priority 2004, published 2008)
Read-outs that look alike come from different tables or passages of the source.

How the values were obtained:
[1] = target: T1, CETP (enriched CETP fraction obtained from human plasma) (Homo sapiens, UniProt P11597); assay: CETP fluorescence test with enriched CETP; assay type: biochemical; conditions: 37° C., 4 hours, CE transfer between liposomes
T1 construct: CETP is obtained in partially purified form from human plasma; from tissue; host or cells: human plasma (d>1.21 g/ml bottom fraction; Phenyl-Sepharose, CM-Sepharose, Mono Q)
T1 sequence (P11597 18-493): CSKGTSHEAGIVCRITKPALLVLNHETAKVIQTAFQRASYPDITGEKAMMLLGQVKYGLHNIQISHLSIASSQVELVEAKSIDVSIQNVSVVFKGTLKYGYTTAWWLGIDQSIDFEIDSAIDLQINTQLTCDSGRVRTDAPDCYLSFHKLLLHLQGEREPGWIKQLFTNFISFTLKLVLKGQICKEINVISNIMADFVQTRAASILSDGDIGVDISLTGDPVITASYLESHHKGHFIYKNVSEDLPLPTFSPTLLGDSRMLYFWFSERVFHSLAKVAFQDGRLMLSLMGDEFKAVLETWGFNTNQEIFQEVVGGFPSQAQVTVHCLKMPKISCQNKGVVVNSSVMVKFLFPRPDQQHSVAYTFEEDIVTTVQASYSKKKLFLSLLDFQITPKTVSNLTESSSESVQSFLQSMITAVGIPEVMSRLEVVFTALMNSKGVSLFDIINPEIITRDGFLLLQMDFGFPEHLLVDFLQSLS
Experimental: (§1) CETP is obtained in partially purified form from human plasma by differential centrifugation and column chromatography and used for the test. To this end, human plasma is adjusted to a density of 1.21 g per ml using NaBr and centrifuged at 4° C. at 50 000 rpm for 18 h. The bottom fraction (d>1.21 g/ml) is applied to a Sephadex® Phenyl-Sepharose 4B (Pharmacia) column, washed with 0.15 M NaCl/0.001 M tris-HCl pH 7.4 and then eluted with distilled water. The CETP-active fractions are pooled, dialyzed against 50 mM sodium acetate pH 4.5 and applied to a CM-Sepharose® column (Pharmacia). The mixture is then eluted using a linear gradient (0-1 M NaCl). The pooled CETP fractions are dialyzed against 10 mM tris/HCl pH 7.4 and then further purified by chromatography on a Mono Q® column (Pharmacia).
Measurement of the CETP-catalyzed transfer of a fluorescent cholesterol ester between liposomes [modified according to the procedure of Bisgaier et al., J. Lipid Res. 34, 1625 (1993)]: […]
The change in the fluorescence at 485/535 nm is a measure of the CE transfer; the inhibition of the transfer in comparison to the control batch without substance is determined. […]

CETP [2] = target: T2, CETP (Homo sapiens, UniProt P11597); assay: CETP-SPA test; assay type: biochemical; set-up: CETP is obtained in partially purified form from human plasma; from tissue; host or cells: human plasma (d>1.21 g/ml bottom fraction; Phenyl-Sepharose, CM-Sepharose, Mono Q); conditions: transfer of 3H-cholesterol ester from human HDL to biotinylated LDL, 37° C., 18 h
T2 sequence (P11597 18-493): T1 sequence (P11597 18-493)
Experimental: as §1
50 ml of fresh human EDTA plasma is adjusted to a density of 1.12 using NaBr and centrifuged at 4° C. in a Ty 65 rotor at 50 000 rpm for 18 h. The upper phase is used for the obtainment of cold LDL. […]
For testing of the CETP activity, the transfer of ^3H-cholesterol ester from human HD lipoproteins to biotinylated LD lipoproteins is measured. The reaction is ended by addition of streptavidin-SPA® beads (Amersham) and the transferred radioactivity is determined directly in a liquid scintillation counter. […]

CETP in human plasma = target: T3, CETP in human plasma (Homo sapiens, UniProt P11597); assay: CETP fluorescence test with human plasma; assay type: biochemical; conditions: 86% v/v human plasma, 37° C., 24 h
T3 construct: tissue Sigma P9523; host or cells: human plasma (purchased, unfractionated)
T3 sequence (P11597 18-493): T1 sequence (P11597 18-493)
Experimental: For the production of the donor liposomes, 1 mg of cholesteryl 4,4-difluoro-5,7-dimethyl-4-bora-3a,4a-diaza-s-indacene-3-dodecanoate (cholesteryl BODIPY® FL C1-2, Molecular Probes) is dissolved in 600 μl of dioxane with 5.35 mg of triolein and 6.67 mg of phosphatidylcholine with gentle warming in an ultrasonic bath and this solution is added very slowly with ultrasonication to 63 ml of 50 mM tris/HCl, 150 mM NaCl, 2 mM EDTA buffer pH 7.3 at room temperature. The suspension is then ultrasonicated under an N2 atmosphere for 30 minutes in the Branson ultrasonic bath at about 50 watts, the temperature being kept at about 20° C.
6 μl (12% v/v) of donor liposomes and 1 μl (2% v/v) of a solution of the substance to be investigated in DMSO are added to 42 μl (86% v/v) of human plasma (Sigma P9523), and the mixture is incubated at 37° C. for 24 h.
The change in the fluorescence at 510/520 nm (gap width 2.5 nm) is a measure of the CE transfer; the inhibition of the transfer in comparison to the control batch without substance is determined. […]

CETP [3] = target: T2, CETP; assay: Ex vivo activity on transgenic hCETP mice (CETP activity in the serum); set-up: from tissue; host or cells: serum of transgenic hCETP mice (host Mus musculus) after oral dosing; conditions: mouse, 3 mg/kg oral, cholesteryl ester transport
Experimental: 10 μl of buffer and 2 μl of serum are added to 80 μl of test mix, and the mixture is incubated at 37° C. for 4 h.
The change in the fluorescence at 485/535 nm is a measure for the CE transfer; the inhibition of the transfer in comparison to the control batch without substance is determined.
To test for CETP-inhibitory activity, the substances are administered orally using a stomach tube to transgenic hCETP mice bred in-house [Dinchuk et al. BBA 1295-301 (1995)]. To this end, male animals are randomly assigned to groups having an equal number of animals, as a rule n=4, one day before the start of the experiment. Before administration of the substance, blood is taken from each mouse by puncture of the retro-orbital venous plexus for the determination of its basal CETP activity in the serum (T1). The test substance is then administered to the animals using the stomach tube. […]
After termination of the clotting, the blood samples are centrifuged and the serum is removed by pipette. For the determination of the CETP activity, the cholesteryl ester transport over 4 h is determined. […]
The differences in the cholesteryl ester transport [pM CE/h (T2)−pM CE/h (T1)] are calculated for each animal and averaged in the groups. […]

IC50 [1]	IC50 (CETP [2])	IC50 (CETP in human plasma)	inhibition at 3 mg/kg (CETP [3]; serum taken 16 h after administration, read-out: % inhibition at 3 mg/kg 16 h)	inhibition at 3 mg/kg (CETP [3]; serum taken 24 h after administration, read-out: % inhibition at 3 mg/kg 24 h)	SMILES
15 nM	24 nM	40 nM			O[C@H]1CC2(CC2)Cc2nc(C3CCCC3)c([C@@H](F)c3ccc(C(F)(F)F)cc3)c(C3CCCC3)c21 [Example 1]
17 nM	32 nM	80 nM	74%	66%	O[C@H]1CC2(CC2)Cc2nc(C3CCCC3)c([C@@H](F)c3ccc(C(F)(F)F)cc3)c(C3CCCCC3)c21 [Example 1]
